Assays:
neutrophil elastase (NE) = settings: cited from earlier work
plasmin = settings: cited from earlier work
neutrophils = settings: in vitro; cited from earlier work
cathepsin G = settings: cited from earlier work
K. pneumoniae = assay: In vivo neutrophil microbial killing assay; set-up: species or system Klebsiella pneumoniae strain 43816; settings: thbs1^−/− mice; 10 µg/mouse i.p. 30 min prior to K. pneumoniae i.p.
purified cathepsin G = settings: purified enzyme, in vitro; cited from earlier work
purified NE = settings: purified enzyme, in vitro; cited from earlier work

TSP-1: matricellular protein that exists as a trimer of identical ~150–180 kDa subunits tethered together by disulfide bonds
reversible inhibition of NE (neutrophil elastase (NE); in the absence of calcium): enhanced
stoichiometry: mol of NE bound per 1 mol of TSP-1 trimer (neutrophil elastase (NE); in the presence of calcium): 2.7 ± 0.3 mol
inhibition of purified NE (neutrophil elastase (NE); purified enzyme, in vitro): binds and competitively inhibits
Kd (neutrophil elastase (NE); read-out: site binding constant, TSP-1 trimer, NE, in the presence of calcium): 57 ± 13 nM
inhibition of plasmin (plasmin; in vitro, cleavage of fibrinogen): competitive inhibitor
predicted stoichiometry with plasmin (plasmin; stoichiometric predictions): one mole of TSP-1 interacting with one mole of plasmin
neutrophil motility and chemotaxis (neutrophils): can bind and induce the motility and chemotaxis of neutrophils in vitro
reversible inhibition of CG (cathepsin G; in the absence of calcium): enhanced
stoichiometry: mol of cathepsin G bound per 1 mol of TSP-1 trimer (cathepsin G; in the presence of calcium): 2.9 ± 0.4 mol
inhibition of purified cathepsin G (cathepsin G; purified enzyme, in vitro): binds and competitively inhibits
Kd (cathepsin G; read-out: site binding constant, TSP-1 trimer, cathepsin G, in the presence of calcium): 7 ± 3.5 nM

rTSP-1: recombinant TSP-1
bacterial killing function of thbs1^−/− neutrophils (K. pneumoniae): eliminated the enhanced bacterial killing function of thbs1^−/− neutrophils near to the level of WT neutrophils

Ac-DNCQYVYNV-NH2 [DV-9]
inhibition of purified cathepsin G (purified cathepsin G): inhibitory activity to both purified cathepsin G and NE
inhibition of purified NE (purified NE): inhibitory activity to both purified cathepsin G and NE

Ac-DNCPFHYNP-NH2 [DP-9]
inhibition of purified cathepsin G (purified cathepsin G): ability to inhibit activity of purified cathepsin G in vitro

Ac-DNCPYVPNA-NH2 [DA-9]
inhibition of purified cathepsin G (purified cathepsin G): without reactive-site sequence similarity or known inhibitory activity
inhibition of purified NE (purified NE): without reactive-site sequence similarity or known inhibitory activity
